Test results taken from patent publication EP2063887B1, “NEW SMALL MOLECULE INHIBITORS OF MDM2 AND THE USES THEREOF” (priority 2006, dated 2008).
“And” between values parts separate entries of the source, which are not always exact repeats. Identical values can stand only once. Like-named read-outs stand apart in the source and are kept apart here.

Tests used:
MDM2 protein = MDM2 protein (Homo sapiens, UniProt Q00987); assay: MDM2 binding assay, competition with tracer F-6 (IC50 and calculated Ki); conditions: MDM2 [10 nM]; F-6 [1 nM]; individual determinations, values not in parentheses
PC-3 (p53 null) = assay: Cell growth inhibition (WST-8, 4 days), PC3; assay type: cell-based, human;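 further: PC-3 is a human prostate cancer line, cultured with test compound throughout the 4-day growth assay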
Method: (§1) To test these predictions, a cell growth assay was developed using human prostate cancer LNCaP (p53 wild-type) and PC-3 (p53 null) cell lines. The toxic effects of compounds of the invention were tested.
(§2) Cells were seeded in 96-well flat bottom cell culture plates at a density of 3-4x 10^3 cells/well and incubated in the presence of compounds for 4 days.

HCT116 p53WT = assay: Cell growth inhibition (WST-8), HCT116 p53WT; assay type: cell-based; conditions: individual determinations and mean ± SD lines;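 further: compound exposure of the cells lasted 4 days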
Method: as §2

HCT116 p53KO = assay: Cell growth inhibition (WST-8), HCT116 p53KO; assay type: cell-based;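 further: cells in 96-well plates exposed to compound for 4 days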
Method: as §2

LNCaP (p53 wild-type) = assay: Cell growth inhibition (WST-8, 4 days), LNCaP; assay type: cell-based, human;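 further: LNCaP human prostate cancer cells exposed to compound for 4 days, with inhibition of cell growth as the measured effect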
Method: as §1, §2

[1] = PC3, p53 null, individual determinations and mean ± SD lines, read-out: PC3 IC50
[2] = HCT116 p53WT, read-out: HCT116 p53WT IC50
[3] = HCT116 p53KO, individual determinations and mean ± SD lines, read-out: HCT116 p53KO IC50
[4] = read-out: LNCaP IC50, individual determinations and mean ± SD lines
[5] = read-out: PC3 IC50, PC3, p53 null, individual determinations and mean ± SD lines
[6] = Homo sapiens, HCT-116, read-out: HCT116 p53WT IC50 (µM), HCT116 p53WT
[7] = read-out: HCT116 p53WT IC50, HCT116 p53WT
[8] = read-out: HCT116 p53KO IC50, HCT116 p53KO, individual determinations and mean ± SD lines
[9] = individual determinations and mean ± SD lines, read-out: LNCaP IC50
[10] = Homo sapiens, 96 h, individual determinations and mean ± SD lines, read-out: LNCaP IC50
[11] = Homo sapiens, HCT-116, HCT116 p53WT, read-out: HCT116 p53WT IC50
[12] = Homo sapiens, HCT-116, HCT116 p53KO, individual determinations and mean ± SD lines, read-out: HCT116 p53KO IC50
[13] = Homo sapiens, 96 h, PC3, p53 null, individual determinations and mean ± SD lines, read-out: PC3 IC50

Chain of MDM2 protein (Q00987 whole entry, species assumed): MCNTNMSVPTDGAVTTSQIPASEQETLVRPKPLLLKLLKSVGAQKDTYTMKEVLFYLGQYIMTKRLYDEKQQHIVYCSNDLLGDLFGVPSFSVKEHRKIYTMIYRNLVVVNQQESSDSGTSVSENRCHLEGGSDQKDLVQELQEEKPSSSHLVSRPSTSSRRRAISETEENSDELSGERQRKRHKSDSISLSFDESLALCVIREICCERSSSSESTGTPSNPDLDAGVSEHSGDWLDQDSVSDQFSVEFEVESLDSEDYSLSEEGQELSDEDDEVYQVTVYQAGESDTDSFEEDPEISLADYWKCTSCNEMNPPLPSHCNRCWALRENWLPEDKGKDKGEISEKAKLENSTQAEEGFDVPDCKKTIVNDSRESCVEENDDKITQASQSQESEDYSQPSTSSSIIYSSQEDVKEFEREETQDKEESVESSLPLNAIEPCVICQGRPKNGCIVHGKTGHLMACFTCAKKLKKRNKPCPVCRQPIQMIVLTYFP

Row | Compound | IC50 (PC-3 (p53 null); [1]) | IC50 (HCT116 p53WT; [2]) | IC50 (HCT116 p53KO; [3]) | IC50 (LNCaP (p53 wild-type); [9]) | also measured
1 | 6-CHLORO-4'-(3-CHLORO-4-FLUOROPHENYL)-2'-(2,2-DIMETHYL-PROPYL)-5-FLUORO-2-OXO-1'-OXY-1,2,4',5'-TETRAHYDRO-SPIRO[INDOLE-3,3'-PYRROLE]-5'-CARBOXYLIC ACID (3,4-DIHYDROXY-BUTYL)-AMIDE [MI-319-14] | 40.1 µM and 40.2 µM and > 30 µM | 8.01 µM and 9.27 µM and 5.74 µM and 7.67 µM | > 30 µM |  | IC50 (MDM2 protein): 2.04 µM and 1.66 µM
2 | CC(C)(C)C[C@H]1N[C@@H](C(=O)NCCC2CCC(O)C2)[C@H](c2ccc(F)c(Cl)c2)[C@@]12C(=O)Nc1cc(Cl)c(F)cc12 (single isomer, unassigned) [MDM2-319-6, 6-CHLORO-4'-(3-CHLORO-4-FLUOROPHENYL)-2'-(2,2-DIMETHYL-PROPYL)-5-FLUORO-2-OXO-1,2-DIHYDRO-SPIRO[INDOLE-3,3'-PYRROLIDINE]-5'-CARBOXYLIC ACID [2-(3-HYDROXY-CYCLOPENTYL)-ETHYL)-AMIDE] |  |  |  |  | IC50 (LNCaP (p53 wild-type); [4]): 2.58 µM and 1.22 µM and 1.93 µM and 1.91 µM; IC50 (PC-3 (p53 null); Homo sapiens, 96 h, read-out: PC3 IC50 (µM), PC3, p53 null, individual determinations and mean ± SD lines): 21.4 µM; IC50 (PC-3 (p53 null); [5]): 20.8 µM and 14.2 µM and 18.7 µM; IC50 (HCT116 p53WT; [6]): 5.45 µM; IC50 (HCT116 p53WT; [7]): 7.41 µM and 5.96 µM and 6.26 µM; IC50 (HCT116 p53KO; Homo sapiens, HCT-116, read-out: HCT116 p53KO IC50 (µM), HCT116 p53KO, individual determinations and mean ± SD lines): 14.3 µM; IC50 (HCT116 p53KO; [8]): 16.1 µM and 14.6 µM and 15 µM
3 | CC(C)(C)C[C@H]1N[C@@H](C(=O)NCC[C@H](O)CO)[C@H](c2ccc(F)c(Cl)c2)[C@@]12C(=O)Nc1cc(Cl)c(F)cc12 [MDM2-319, (2'R,3S,3"S,4'R,5'R) 6-CHLORO-4'-(3-CHLORO-4-FLUORO-PHENYL)-2'-(2,2-DIMETHYL-PROPYL)-5-FLUORO-2-OXO-1,2-DIHYDRO-SPIRO[INDOLE-3,3'-PYRROLIDINE]-5'-CARBOXYLIC ACID (3,4-DIHYDROXY-BUTYL)-AMIDE] |  | 0.717 µM and 0.615 µM and 0.247 µM and 0.52 µM |  | 0.274 µM and 0.184 µM and 0.229 µM | IC50 (HCT116 p53KO; read-out: HCT116 p53KO IC50): 11.8 µM and 12.2 µM and 14.2 µM
4 | O=C(NCC[C@H](O)CO)[C@@H]1N[C@H](CC2CCCC2)[C@]2(C(=O)Nc3cc(Cl)c(F)cc32)[C@H]1c1ccc(F)c(Cl)c1 [MDM2-319-1, 6-CHLORO-4'-(3-CHLORO-4-FLUOROPHENYL)-2'-CYCLOPENTYLMETHYL-5-FLUORO-2-OXO-1,2-DIHYDRO-SPIRO[INDOLE-3,3'-PYRROLIDINE]-5'-CARBOXYLIC ACID (3,4-DIHYDROXY-BUTYL)-AMIDE] |  | 1.36 µM | 10.4 µM | 0.36 µM | IC50 (LNCaP (p53 wild-type); [10]): 0.261 µM; IC50 (HCT116 p53WT; [11]): 0.908 µM; IC50 (HCT116 p53KO; [12]): 12.7 µM
5 | O=C(NCC[C@H](O)CO)[C@@H]1N[C@H](C2CCCCC2)[C@]2(C(=O)Nc3cc(Cl)c(F)cc32)[C@H]1c1ccc(F)c(Cl)c1 [MDM2-319-4, 6-CHLORO-4'-(3-CHLORO-4-FLUOROPHENYL)-2'-CYCLOHEXYL-5-FLUORO-2-OXO-1,2-DIHYDRO-SPIRO[INDOLE-3,3'-PYRROLIDINE]-5'-CARBOXYLIC ACID (3,4-DIHYDROXY-BUTYL)-AMIDE] | 23.4 µM and 25.6 µM and 22.5 µM | 5.03 µM and 5.8 µM and 2.41 µM and 4.41 µM | 13.1 µM and 26.5 µM and 13.4 µM and 17.6 µM | 1.29 µM and 0.89 µM and 1.21 µM | IC50 (LNCaP (p53 wild-type); [10]): 1.42 µM; IC50 (PC-3 (p53 null); [13]): 18.5 µM
6 | CC(C)(C)C[C@H]1N[C@@H](C(=O)NCCC2CCC(O)C2)[C@H](c2ccc(F)c(Cl)c2)[C@@]12C(=O)Nc1cc(Cl)c(F)cc12 (stereo partly shown) [MDM2-319-5] | 5.55 µM and 8.71 µM and 7.91 µM | 1.29 µM and 1.5 µM and 1.23 µM | 5.39 µM and 8.4 µM and 8.1 µM | 0.465 µM and 0.634 µM and 0.56 µM | 
7 | COC(C)(C)C[C@H]1N[C@@H](C(=O)NCC[C@H](O)CO)[C@H](c2ccc(F)c(Cl)c2)[C@@]12C(=O)Nc1cc(Cl)c(F)cc12 [MI-319-7] | 34.3 µM | 7.95 µM |  | 1.92 µM | 
8 | O=C(NCC[C@H](O)CO)[C@@H]1N[C@H](C2CCCC2)[C@]2(C(=O)Nc3cc(Cl)c(F)cc32)[C@H]1c1ccc(F)c(Cl)c1 [MI-319-8, 6-CHLORO-4'-(3-CHLORO-4-FLUOROPHENYL)-2'-CYCLOPENTYL-5-FLUORO-2-OXO-1,2-DIHYDRO-SPIRO[INDOLE-3,3'-PYRROLIDINE]-5'-CARBOXYLIC ACID (3,4-DIHYDROXY-BUTYL)-AMIDE] | 20.7 µM and 18.4 µM and 23.3 µM | 4.73 µM and 2.74 µM and 3.86 µM | 25.5 µM and 22.7 µM and 26.3 µM | 0.963 µM and 0.893 µM and 0.662 µM and 1.46 µM | IC50 (PC-3 (p53 null); [13]): 30.7 µM; IC50 (HCT116 p53WT; [11]): 4.11 µM; IC50 (HCT116 p53KO; [12]): 30.9 µM
9 | CN1CCN(C(=O)[C@@H]2N[C@H](CC(C)(C)C)[C@]3(C(=O)Nc4cc(Cl)c(F)cc43)[C@H]2c2ccc(F)c(Cl)c2)CC1 [MI-319-9] |  |  |  |  | IC50 (LNCaP (p53 wild-type); [4]): 5 µM and 2.46 µM; IC50 (HCT116 p53WT; [6]): 7.48 µM; IC50 (HCT116 p53WT; [7]): 9.2 µM and 4.63 µM and 7.1 µM; IC50 (HCT116 p53KO; [8]): 9.71 µM and 8.19 µM and 4.52 µM and 7.47 µM
10 | CC(=O)N1[C@@H](C(=O)NCC[C@H](O)CO)[C@H](c2ccc(F)c(Cl)c2)[C@@]2(C(=O)Nc3cc(Cl)c(F)cc32)[C@H]1CC(C)(C)C [MI-319-13, 1'-ACETYL-6-CHLORO-4'-(3-CHLORO-4-FLUOROPHENYL)-2'-(2,2-DIMETHYLPROPYL)-5-FLUORO-2-OXO-1,2-DIHYDRO-SPIRO[INDOLE-3,3'-PYRROLIDINE]-5'-CARBOXYLIC ACID (3,4-DIHYDROXY-BUTYL)-AMIDE] |  |  |  |  | IC50 (LNCaP (p53 wild-type); [4]): 3.66 µM and 2.32 µM and 4.85 µM and 3.6 µM; IC50 (HCT116 p53WT; [7]): 3.23 µM and 6.37 µM and 11 µM and 6.85 µM
11 | CC(C)(C)C[C@H]1N[C@@H](C(=O)NCCn2ccnc2)[C@H](c2ccc(F)c(Cl)c2)[C@@]12C(=O)Nc1cc(Cl)c(F)cc12 [MI-319-17, 6-CHLORO-4'-(3-CHLORO-4-FLUOROPHENYL)-2'-(2,2-DIMETHYL-PROPYL)-5-FLUORO-2-OXO-1,2-DIHYDRO-SPIRO[INDOLE-3,3'-PYRROLIDINE]-5'-CARBOXYLIC ACID (2-IMIDAZOL-1-YL-ETHYL)-AMIDE] | 22 µM and 23.6 µM | 3.79 µM and 3.15 µM | 22.3 µM and 25.1 µM | 1.55 µM and 1.51 µM | IC50 (LNCaP (p53 wild-type); [10]): 1.1 µM; IC50 (PC-3 (p53 null); [13]): 14 µM; IC50 (HCT116 p53WT; [11]): 2.1 µM; IC50 (HCT116 p53KO; [12]): 25.1 µM
12 | CC(C)(C)C[C@H]1N[C@@H](C(=O)NC[C@H](O)[C@H](O)CO)[C@H](c2ccc(F)c(Cl)c2)[C@@]12C(=O)Nc1cc(Cl)c(F)cc12 [MI-319-19, 6-CHLORO-4'-(3-CHLORO-4-FLUOROPHENYL)-2'-(2,2-DIMETHYL-PROPYL)-5-FLUORO-2-OXO-1,2-DIHYDRO-SPIRO[INDOLE-3,3'-PYRROLIDINE]-5'-CARBOXYLIC ACID (2,3,4-TRIHYDROXY-BUTYL)-AMIDE] | > 30 µM and 41.6 µM | 2.68 µM and 5.98 µM and 4.6 µM | > 30 µM and 77.6 µM | 2.4 µM and 1.2 µM | IC50 (LNCaP (p53 wild-type); [10]): 1.24 µM; IC50 (PC-3 (p53 null); [13]): 30.7 µM
13 | CC(C)(C)C[C@H]1N[C@@H](C(=O)NCCNC(=N)N)[C@H](c2ccc(F)c(Cl)c2)[C@@]12C(=O)Nc1cc(Cl)c(F)cc12 [MI-319-20, 6-CHLORO-4'-(3-CHLORO-4-FLUOROPHENYL)-2'-(2,2-DIMETHYL-PROPYL)-5-FLUORO-2-OXO-1,2-DIHYDRO-SPIRO[INDOLE-3,3'-PYRROLIDINE]-5'-CARBOXYLIC ACID (2-GUANIDINO-ETHYL)-AMIDE] |  |  |  |  | IC50 (PC-3 (p53 null); [5]): > 30 µM and 66.1 µM; IC50 (HCT116 p53WT; [7]): > 30 µM and 93.5 µM; IC50 (HCT116 p53KO; [8]): > 100 µM
14 | CC(C)(C)C[C@H]1N[C@@H](C(=O)NCCc2ncc[nH]2)[C@H](c2cccc(Cl)c2)[C@@]12C(=O)Nc1cc(Cl)c(F)cc12 [MI-319-21] | 14.1 µM | 3.88 µM | 13.2 µM | 1.84 µM | 
